From patent publication US20120134985A1, “METHODS FOR MODULATING METABOLIC AND CIRCADIAN RHYTHMS” (The Salk Institute for Biological Studies, priority 2009, published 2012)

Tests used:
[1] = tested on: CRY1; assay: Flag-CRY1 degradation/stability in AMPK+/+ and AMPK-/- mouse embryonic fibroblasts (immunoprecipitation, immunoblot, cycloheximide time course); type: cell-based
Text: (§1) (A) Sequence alignments showing evolutionary conservation of the regions surrounding S71 of mCRY1 in cryptochrome circadian transcriptional repressors (species names in red font) and blue light photoreceptors (species names in blue font). The highlighted numbers above the sequences indicate amino acid preferences at those positions relative to the target serine for phosphorylation by AMP kinase: red indicates a preference for acidic residues (K/R) and green for hydrophobic residues (L/I/V/F). (B) Top: sequence alignment of the phospho-peptides against which antibodies to mCRY1-pS71 and mACC1-pS79 were raised. Bottom: Both anti-mCRY1-pS71 and anti-ACC1-pS79 antibodies recognize WT but not S71A Flag-mCRY1 immunoprecipitated from AD293 cells. (C) anti-mCRY1-p571 was used to detect phosphorylation of Ser71 in Flag-CRY1 immunoprecipitated from AD293 cells transiently expressing wild type CRY1 (WT) or CRY1S71A (S71A) in the absence or presence of activated alleles of AMPKα1 (CAα1) or AMPKα2 (CAα2). Transiently expressed myc-CAα1 and myc-CAα2 were immunostained with polyclonal rabbit antibodies raised against the myc epitope tags and anti-rabbit AF488 (green). Nuclei were counterstained with DAPI (blue). (D) HeLa cells transiently expressing Flag-CRY1 with wild type (WT) or kinase dead (KD) LKB1 were treated with vehicle (−) or 2 mM AICAR (+) for 2 hours. (E) AD293 cells transiently expressing the indicated alleles of Flag-mCRY1 were treated with media containing 25 mM or 0.5 mM glucose. (F) Paired wild type (AMPK+/+) and ampkα1^−/−;ampkα2^−/− (AMPK−/−) mouse embryonic fibroblasts stably expressing Flag-tagged wild type CRY1 (WT) or CRY1S71A/S280A (AA) were treated with vehicle (−) or 2 mM AICAR (+) for 2 hours. (G) MEFs described in (F) were treated with 100 μg/ml cycloheximide (CHX) for the indicated times. CRY1 was detected by immunoprecipitation and immunoblotting for the Flag epitope in (D-G). […]

[2] = tested on: Fas and Por expression in liver; assay: Liver gene expression (quantitative PCR) in wildtype and Cry1-/-;Cry2-/- mice injected with AICAR; type: in vivo, mouse
Experimental: Wildtype (WT) or Cry1^−/−;Cry2^−/− (CRY^−/−) mice were injected with either saline (black bars) or 500 mg AICAR per kg of bodyweight (red bars) at 6:00 pm. cDNA was prepared from livers collected four hours later at 10:00 pm and gene expression was analyzed by quantitative PCR using Sybr GreenER chemistry. […] Data represent the mean±s.e.m. for 3-5 mice per condition.
Gene Expression—RNA was extracted from livers or cultured fibroblasts with Trizol or using the Qiagen RNeasy purification system. cDNA was prepared using the SuperscriptII reverse transcriptase (Invitrogen) and analyzed for gene expression using quantitative real-time PCR with either SYBR green (Invitrogen) or TaqMan (Applied Biosystems) chemistry. Primer sequences are available upon request.
Mice—LKB1^fl/fl mice were a gift from Dr. Ronald De Pinho, Cry1^−/−;Cry2^−/− mice were a gift from Dr. Aziz Sancar. Adenovirus expressing Cre recombinase was from the University of Iowa Transgenic Core facility. All animal care and treatments were in accordance with the Salk Institute guidelines for the care and use of animals.
Furthermore, the effect on metabolic physiology of genetic disruption of both Cry1 and Cry2 in mice is examined.

[3] = tested on: Bmall-luciferase; assay: Real time bioluminescence monitoring of Bmall-luciferase circadian rhythms; type: cell-based, human; conditions: high glucose medium supplemented with 2 mM AICAR
Experimental: (§2) (A) Unsynchronized paired wild type (AMPK^+/+) or ampkα1^−/−; ampkα2^−/− (AMPK−/−) mouse embryonic fibroblasts were stimulated by 2 hour exposure to 50% horse serum followed by transfer to media containing 25 mM glucose, 0.5 mM glucose or 25 mM glucose supplemented with 1 mM AICAR. Quantitative PCR analysis was performed using cDNA samples collected at the indicated times following stimulation. Data represent the mean of two independent experiments, each analyzed in triplicate. (B) Fibroblasts stably expressing Bmall-luciferase were cultured in media containing the indicated amounts of glucose with or without 2 mM AICAR. Typical results of continuous monitoring of luciferase activity are shown. (C and D) Quantitation of the circadian period (C) and amplitude (D) of Bmall-driven luciferase activity from experiments performed as described in (B). Data in (C) and (D) represent the mean±standard deviation for four samples per condition. ANOVA analysis indicated a significant difference between categories. ** P<0.01 vs. samples cultured in 25 mM glucose in Scheffe's post-hoc analysis.
The Bmall promoter is repressed by REVERBa. […]
Real Time Bioluminescence Monitoring—The human osteosarcoma U2OS reporter cell line stably expressing a Bmall promoter driven luciferase has been described. […] Bioluminescence was continuously recorded by a LumiCycle apparatus from Actimetrics, Inc.

[4] = tested on: reverba and dbp expression; assay: Quantitative PCR of circadian transcripts in serum-stimulated mouse embryonic fibroblasts; type: cell-based; conditions: 25 mM glucose supplemented with 1 mM AICAR
Experimental: as §2, with “ANOVA analysis indicated a significant difference between categories. ** P<0.01 vs. samples cultured in 25 mM glucose in Scheffe's post-hoc analysis.” left out
FIG. 10A-D show disruption of AMPK alters circadian rhythms in MEFs. […] Quantitative PCR analysis was performed using cDNA samples prepared from lysates collected at the indicated times following stimulation. Data represent the mean±standard deviation of two or three independent experiments each analyzed in triplicate. […]

[5] = tested on: mCRY1; assay: Levels of exogenously expressed Flag-mCRY1 in HeLa cells expressing WT or KD LKB1 (immunoblot); type: cell-based, mouse; conditions: HeLa cells with wild type (WT) LKB1; 2 mM AICAR for 2 hours
Text: as §1, with “(D) HeLa cells transiently expressing Flag-CRY1 with wild type (WT) or kinase dead (KD) LKB1 were treated with vehicle (−) or 2 mM AICAR (+) for 2 hours. (E) AD293 cells transiently expressing the indicated alleles of Flag-mCRY1 were treated with media containing 25 mM or 0.5 mM glucose. (F) Paired wild type (AMPK+/+) and ampkα1^−/−;ampkα2^−/− (AMPK−/−) mouse embryonic fibroblasts stably expressing Flag-tagged wild type CRY1 (WT) or CRY1S71A/S280A (AA) were treated with vehicle (−) or 2 mM AICAR (+) for 2 hours. (G) MEFs described in (F) were treated with 100 μg/ml cycloheximide (CHX) for the indicated times.” left out

[6] = tested on: AMPK; assay: In vitro phosphorylation assay of purified Flag-mCRY1 by purified AMPK; type: biochemical; conditions: 300 μM AMP; 30 minutes; 32P-ATP
Experimental: Flag-tagged mCRY1 purified from AD293 cells was incubated for 30 minutes with #^32P-ATP in the absence or presence of AMP kinase and 300 μM AMP as indicated. Phosphorylation of mCRY1 was detected by autoradiography; total mCRY1 levels were determined by immunoblot for the Flag epitope.
In vitro Phosphorylation Assay—Flag-mCRY1 was purified from transfected AD293 cells and combined with ^32P-ATP and purified AMPK (from Upstate Biotechnology) in the presence or absence of 300 uM AMP for 30 minutes at room temperature. The reaction mixture was separated by SDS-PAGE and transferred to nitrocellulose. Following radioactive visualization by phosphoimager, the nitrocellulose was immunoblotted for the Flag tag.

[7] = tested on: AMPK; conditions: cited from earlier work
[8] = WT or Cry1-/-;Cry2-/- mice, 500 mg AICAR per kg of bodyweight, livers collected four hours later

## NC(=O)c1ncn([C@@H]2O[C@H](CO)[C@@H](O)[C@H]2O)c1N [AICAR, 5-amino-4-imidazolecarboxamide riboside]
[1]; 4-hour time course of cycloheximide treatment in the presence of AICAR
  stability of wild type CRY1: reduced stability
[1]; AMPK-/- MEFs (absence of functional AMPK), 2 mM AICAR for 2 hours
  effect on WT or AA CRY1: no effect
[1]; wild type (AMPK+/+) MEFs, 2 mM AICAR for 2 hours
  degradation of wild type (WT) Flag-CRY1: acutely degraded
[2]; [8]
  Fas (fatty acid synthase) expression in liver: activated by AICAR regardless of Cry1 and Cry2 genotype
  Por (p450 oxidoreductase) expression in liver: AICAR-induced activation requires cryptochromes
[2]; wildtype and cryptochrome-deficient mice injected with AICAR
  gene expression in the livers: cryptochromes are required for AICAR-induced activation of a subset of the genes
[3]
  amplitude of Bmall-luciferase expression: decreased the amplitude
[4]; MEFs lacking AMPK (AMPK-/-)
  expression of reverba and dbp: neither glucose deprivation nor AICAR treatment affected
[4]; wild type fibroblasts
  amplitude of circadian reverba and dbp expression: mimicked the effects of glucose deprivation
[5]
  levels of exogenously expressed mCRY1: reduction was enhanced

## Nc1ncnc2c1ncn2[C@@H]1O[C@H](COP(=O)(O)O)[C@@H](O)[C@H]1O [AMP]
[6]
  phosphorylation of mCRY1 by purified AMPK: strongly activated

## NC(=O)c1ncn([C@@H]2O[C@H](COP(=O)(O)O)[C@@H](O)[C@H]2O)c1N [ZMP, 5-amino-4-imidazolecarboxamide ribotide]
[7]; AMP analog formed in the cell from AICAR
  AMPK activation: has been shown to activate AMPK
[7]; also acts as an AMP mimic in the regulation of other enzymes
  specificity as AMPK activator: not a specific AMPK activator
